The text below walks through data of article PMC6264499, “In silico identification and experimental validation of hits active against KPC-2 β-lactamase” (PLoS ONE, 2018).

Data set [1] has as its target T1, recombinant KPC-2 (Klebsiella pneumoniae, UniProt Q9F663).
T1 construct: made in house; host or cells: E. coli BL21 (DE3)
In words: KPC-2 inhibition assay, nitrocefin as reporter substrate. The following applies: for pIC50: nitrocefin 114.28 μM (Km 36 μM), 25°, 485 nm. In kind it is biochemical. Here is the method: (§1) The blaKPC-2 gene was kindly provided by Prof. Sergei Vakulenko (University of Notre Dame du Lac, Indiana, USA) and cloned as already reported and transformed into competent E.coli BL21 (DE3) cells for protein expression. 50 mL of Tryptic Soy Broth (TSB) (50 mg/L kanamycin) were inoculated with fresh colonies and grown at 37°C. 4 mL of the overnight culture was used to inoculate 1.3 L of TSB (50 mg/L kanamycin) grown at 37°C with shaking to an optical density of 0.5 measured at 600 nm. Then expression of recombinant bla gene was induced by adding 1.0 mM IPTG (isopropyl-D-thiogalactopyranoside) and the cells were again allowed to grow at 20°C overnight. Bacteria were harvested by centrifugation at 4000 rpm for 20 minutes. The pelleted cells were resuspended in Tris-HCl 50 mM pH 7.4–7.5. Periplasmatic proteins were extracted as reported in the pET System Manual (TB055 10th Edition Rev. B 0403) and subsequently dialyzed in sodium acetate buffer (50 mM, pH 5.0). The protein was conveniently purified in a single step using a Macro-Prep High S resin and eluted using sodium acetate 50 mM pH 5.0 and a sodium chloride (NaCl) linear gradient from 100 to 500 mM. The purified protein was dialyzed overnight in sodium phosphate buffer 50 mM, pH 7.0 [31, 32].
(§2) The hydrolytic activity of KPC-2 was measured using the β-lactam substrates CENTA (100 uM, KM 70 uM) or nitrocefin (114 uM, KM 36 μM) in reaction buffer consisting of 50 mM of PB at pH 7.0 at 25°C with 0.01% v/v Triton X-100 to avoid compound aggregation and promiscuous inhibition.[33] Reactions were monitored using a Beckmann DU640 spectrophotometer at […] for CENTA and 480 nm wavelength for nitrocefin [34]. The test compounds were synthesized as described below or purchased from Enamine, TimTec, Vitas-M, ChemBridge, Otava, Life Chemicals or Apollo Scientific and assayed without further purification. Compounds were dissolved in dimethyl sulfoxide (DMSO) to a concentration of 25 mM and stored at -20°C. The highest concentration at which the compounds were tested was up to 1 mM (depending on their solubility). All experiments were performed in duplicate and the error never exceeded 5%. The reaction was typically initiated by adding KPC-2 to the reaction buffer last. To control for incubation effects, protein was added to the reaction buffer first, and the reaction was initiated by the addition of reporter substrate after 10 minutes of enzyme-compound incubation.
Kinetic were monitored at 25° by following the absorbance variation at λ = 485 nm. ^[b] If no IC50 has been measured, percent inhibition at the highest tested concentration is given in parentheses. […] When % Inhibition was below 10% No Inhibition (NI) is reported. TEXT PRINTED IN THE PICTURE: 11a: IC50 mM [a,b]: 0.036 | 1b: IC50 mM [a,b]: > 0.2 (25) | 2b: IC50 mM [a,b]: >0.6 (23) | 3b: IC50 mM [a,b]: Not tested not soluble | 4b: IC50 mM [a,b]: > 0.2 (16) | 5b: IC50 mM [a,b]: > 0.2 (13) | 6b: IC50 mM [a,b]: NI at 0.2 | 7b: IC50 mM [a,b]: >1.0 (30) | 8b: IC50 mM [a,b]: > 1.0 (37) | 9b: IC50 mM [a,b]: NI at 0.5 | 10b: IC50 mM [a,b]: NI at 0.5 | 11b: IC50 mM [a,b]: > 1.0 (37) | 12b: IC50 mM [a,b]: NI at 0.5 | 13b: IC50 mM [a,b]: NI at 0.5 | 14b: IC50 mM [a,b]: >500 (20) DOUBTS OF THE COPYIST ABOUT THIS PICTURE: column head: raised note printed very small, read as [a,b]

Another data set deals with Kpn 53A8. In words: MIC of meropenem, alone or 1:1 with compounds, KPC-2 clinical strain. Conditions: for fold reduction of meropenem MIC in combination with compound: strain Kpn 53A8. The data set is classed as cell-based, K. pneumoniae. As for the experimental part: (§3) The antimicrobial activity of the best hits 9a and 11a and their derivatives was studied in bacterial cell cultures to investigate their ability to cross the outer membrane reaching the periplasmic space, where KPC-2 is secreted and confined in Gram negative bacteria. Compounds were tested for synergy with the β-lactam antibiotic meropenem against four K. pneumoniae clinical strains, isolated from different patients at the Hospital Universitario Son Espases, Palma de Mallorca, Spain. […] The three additional strains harbored the blaKPC-2 gene and were resistant to meropenem (Table 2). […] However, against strain Kpn 53A8 the MIC value was lowered by a factor of two when meropenem was combined with compounds 32a, 1b, 2b, 5b and 6b while in combination with compound 11a the MIC value was reduced by 4 fold.

For a further data set, the target named is CTX-M9 (Escherichia coli, UniProt Q9L5C8). In words: Inhibition of other class A β-lactamase CTX-M9. In kind it is biochemical. Here is the method:
(§4) For compound 9a binding affinity and mode of inhibition was determined by using gradient concentrations of CENTA. […] For this compound aggregating behavior was also excluded by dynamic light scattering experiment (data not shown).

The target of data set [2] is T1, recombinant KPC-2. Kind of data set: KPC-2 inhibition assay, CENTA as reporter substrate. The data set is classed as biochemical. As for the experimental part:
as §1, §2
Fig 4 Inhibitory activity of compounds selected from virtual screening. ^[a]Assays were performed in duplicate (errors were less than 5%) with CENTA as reporter substrate (100 μM, km 70 μM). Kinetic were monitored at 25° by following the absorbance variation at λ = 405 nm. ^[b] If no IC50 has been measured, percent inhibition at the highest tested concentration is given in parentheses. For example, > 0.50 (26%) implies that the highest concentration tested was 0.50 mM; at this concentration, the enzyme was inhibited by 26%. Therefore, IC50> 0.50 mM. When % Inhibition was below 10% No Inibition (NI) is reported. ^[c]Assays were run after 10’ incubation of the inhibitor with KPC-2. Reaction was started by the addition of CENTA. […] 0 (11) | 32a: IC50 mM ^[a,b]: 1.24
Competitive inhibition mechanism and the Ki for compound 9a was determined by Lineweaver–Burk (LB) and Dixon plots.

A short description of data set [3]: Dynamic light scattering, aggregating behavior. The data set is classed as physicochemical. Conditions: dynamic light scattering (data not shown). As for the experimental part:
as §4

The next data set has as its system Kpn (C-). Kind of data set: MIC of meropenem, alone or 1:1 with compounds, control strain. In kind it is cell-based, K. pneumoniae. Conditions: Klebsiella pneumoniae, no compound added. As for the experimental part:
as §3

A further data set has as its system Kpn 99D8. Kind of data set: MIC of meropenem, alone or 1:1 with compounds, KPC-2 clinical strain. In kind it is cell-based, K. pneumoniae. The following applies: Klebsiella pneumoniae, no compound added. As for the experimental part: as §3
A further data set has as its system Kpn 53A9. The data set is described as above. The data set is classed as cell-based, K. pneumoniae. The following applies: Klebsiella pneumoniae, no compound added. Here is the method: as §3
Where [4] appears, read: read-out: percent inhibition at the highest tested concentration.

pIC50, pKi: −log10 of the molar value.

T1 sequence (Q9F663 25-293, looked up): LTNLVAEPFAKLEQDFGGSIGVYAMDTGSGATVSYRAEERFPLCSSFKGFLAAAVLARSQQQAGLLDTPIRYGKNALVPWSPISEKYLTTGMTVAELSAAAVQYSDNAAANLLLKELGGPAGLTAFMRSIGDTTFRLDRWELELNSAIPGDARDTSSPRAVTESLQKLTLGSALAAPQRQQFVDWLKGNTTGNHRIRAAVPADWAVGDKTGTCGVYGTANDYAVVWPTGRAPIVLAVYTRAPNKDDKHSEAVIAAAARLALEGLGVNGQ
Chain of CTX-M9 (Q9L5C8 29-291): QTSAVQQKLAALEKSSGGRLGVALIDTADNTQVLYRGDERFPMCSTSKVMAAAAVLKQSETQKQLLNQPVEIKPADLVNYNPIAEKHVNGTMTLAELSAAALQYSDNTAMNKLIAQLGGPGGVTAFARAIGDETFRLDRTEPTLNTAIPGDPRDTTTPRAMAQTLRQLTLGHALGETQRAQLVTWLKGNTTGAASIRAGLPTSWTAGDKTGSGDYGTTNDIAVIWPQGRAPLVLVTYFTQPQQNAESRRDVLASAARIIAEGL

Regarding `O=S(=O)(Nc1cccc(-c2nnn[nH]2)c1)c1ccc(Cl)cc1` [6b, N-(3-(1H-tetrazol-5-yl)phenyl)-4-chlorobenzenesulfonamide], at recombinant KPC-2 [1] (setting [4]), the inhibition at 200 µM was less than 10%. In the data set on Kpn 53A8, the “fold reduction of meropenem MIC in combination with compound” value (“fold reduction of meropenem MIC” for short) is reported as “two”.

As a reminder, the pIC50 is the IC50 on a negative log10 scale, so that one unit is a factor of ten. As a reminder, the pKi is −log10 of the Ki, conventionally taken in molar units. As for `COc1ccc2nc(C(=O)O)sc2c1` [9a], the pIC50 on CTX-M9 is 3.80. The pIC50 on recombinant KPC-2 [2] (CENTA 100 μM, after 10' incubation of the inhibitor with KPC-2, read-out: IC50) was 3.82. On recombinant KPC-2 [2] (Lineweaver–Burk and Dixon plots, gradient concentrations of CENTA, read-out: Ki (determined)), the pKi is 3.95. For the same molecule, on recombinant KPC-2 [2] (vs KPC-2), the “ligand efficiency (LE)” value is recorded as 0.38 kcal/mol/non-hydrogen atom and the mode of inhibition result is on record as “competitive inhibitor”. In addition, in data set [3], the aggregating behavior result is listed as “excluded”.

As for `O=[N+]([O-])c1cccc(S(=O)(=O)Nc2cccc(-c3nnn[nH]3)c2)c1` [2b, N-(3-(1H-tetrazol-5-yl)phenyl)-3-nitrobenzenesulfonamide], the pIC50 on recombinant KPC-2 [1] was less than 3.22. Moreover, on recombinant KPC-2 [1] (setting [4]), the inhibition at 600 µM came out at 23%. Besides, the “fold reduction of meropenem MIC” value in the data set on Kpn 53A8 is on record as “two”.

The MIC is the least concentration at which growth counts as inhibited. For `C[C@@H](O)[C@H]1C(=O)N2C(C(=O)O)=C(S[C@@H]3CN[C@H](C(=O)N(C)C)C3)[C@H](C)[C@H]12` [meropenem], the MIC with Kpn (C-) is less than 0.25 µg/mL; in the data set with Kpn 53A8 (Klebsiella pneumoniae, Kpn 53A8, no compound added), 256 µg/mL; in the data set with Kpn 99D8 it was 256 µg/mL; with Kpn 53A9 it was 256 µg/mL.

As to `O=S(=O)(Nc1cccc(-c2nnn[nH]2)c1)c1cccc(F)c1` [1b, N-(3-(1H-tetrazol-5-yl)phenyl)-3-fluorobenzenesulfonamide], the pIC50 at recombinant KPC-2 [1] was less than 3.70. Further, the inhibition at 200 µM at recombinant KPC-2 [1] (setting [4]) came to 25%. Besides, the “fold reduction of meropenem MIC” value in the data set on Kpn 53A8 is on record as “two”.

For the molecule `O=S(=O)(Nc1cccc(-c2nnn[nH]2)c1)c1cccc2cccnc12` [5b, N-(3-(1H-tetrazol-5-yl)phenyl)quinoline-8-sulfonamide], the pIC50 at recombinant KPC-2 [1] was less than 3.70. On recombinant KPC-2 [1] (setting [4]), the inhibition at 200 µM is 13%. Further, in the data set on Kpn 53A8, the “fold reduction of meropenem MIC” value is on record as “two”.
